Test system: Huh7 cells stably expressing DENV-3 replicon (strain D3MY05-34640)
Test: Luciferase reporter replicon assay, DENV-3
Format: cell-based
Conditions: on moving the 3-F group to the ortho position (compared with the 3-F analogue)

## O=C1CC2(C(=O)Nc3ccc(Cl)cc32)c2cnn(Cc3ccc(Cl)c(F)c3)c2N1 (stereo not shown) [Compound 22, 5-Chloro-1’-(4-chloro-3-fluorobenzyl)-5’,7’-dihydrospiro[indoline-3,4’-pyrazolo[3,4-b]pyridine]-2,6’(1’H)-dione]
  loss of potency against DENV-3: 20 fold

Reference: paper PMC8848308 (Bioorganic & medicinal chemistry letters, 2020)
